Reference: US9714231B2, “Pyrrolidine GPR40 modulators” (BRISTOL-MYERS SQUIBB COMPANY, priority 2012, dated 2017)
Counter-ions that a name gives are not always drawn.

These compounds were tested against human GPR40 (Homo sapiens, UniProt O14842) (assay: FDSS-based intracellular calcium assay (Human GRP40 in vitro assay)). Conditions: cells expressing GPR40, intracellular Ca2+ response, FDSS reader; read-out: hGPR40 EC50.
Format: cell-based
Design: 3xFLAG; expressed in transfected cells
How it was run: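 GPR40-expressing cells, plated overnight in serum-free phenol red-free DMEM, loaded with Fluo-3 in HBSS with 1.7 mM probenecid for 30 min at 37° C. Compounds in DMSO, diluted in assay buffer, added as 3× solutions; intracellular Ca^2+ response read on FDSS.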

Sequence of human GPR40 (O14842 whole entry): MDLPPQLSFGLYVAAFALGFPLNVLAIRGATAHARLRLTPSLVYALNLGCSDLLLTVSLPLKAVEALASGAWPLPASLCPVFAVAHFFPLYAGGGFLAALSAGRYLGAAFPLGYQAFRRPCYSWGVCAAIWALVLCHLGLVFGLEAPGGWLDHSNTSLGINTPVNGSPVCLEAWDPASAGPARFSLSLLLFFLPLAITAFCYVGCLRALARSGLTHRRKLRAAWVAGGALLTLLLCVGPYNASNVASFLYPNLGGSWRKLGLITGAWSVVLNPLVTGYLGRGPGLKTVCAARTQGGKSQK

EC50 [nM] | Structure (SMILES)
3200 | COc1cc(N2CCC(Oc3ccc(N4C[C@H](OC)C[C@@H]4CC(=O)O)cc3)CC2)c(F)cc1Cc1ccccc1 [Example 23, 2-((2R,4R)-1-(4-((1-(4-Benzyl-2-fluoro-5-methoxyphenyl)piperidin-4-yl)oxy)phenyl)-4-methoxypyrrolidin-2-yl)acetic acid, TFA]
860 | CCOc1ccc(F)c(N2CCC(Oc3ccc(N4C[C@H](Oc5cccnc5)C[C@@H]4CC(=O)O)cc3)CC2)c1 [Example 76, 2-((2R,4R)-1-(4-(1-(5-Ethoxy-2-fluorophenyl)piperidin-4-yloxy)phenyl)-4-(pyridin-3-yloxy)pyrrolidin-2-yl)acetic acid]
3500 | COc1cc(N2CCC(Oc3ccc(N4C[C@H](OC)[C@@H](C)[C@@H]4CC(=O)O)cc3)C(C)C2)c(F)cc1F (single isomer, unassigned) [Example 169, Isomer 1]
1500 | COc1ccc(F)c(N2CCC(Oc3ccc(N4C[C@H](C(F)(F)F)C[C@H]4CC(=O)O)cn3)CC2)c1 [Example 50, 2-((2S,4R)-1-(6-((1-(2-Fluoro-5-methoxyphenyl)piperidin-4-yl)oxy)pyridin-3-yl)-4-(trifluoromethyl)pyrrolidin-2-yl)acetic acid]
500 | COc1cc(N2CCC(Oc3ncc(N4C[C@H](OC)[C@@H](C)[C@H]4CC(=O)O)cc3F)C(C)C2)c(Cl)cn1 (stereo partly drawn) [Example 168, 2-((2R,3S,4R)-1-(6-(((3,4-trans)-1-(5-Chloro-2-methoxypyridin-4-yl)-3-methylpiperidin-4-yl)oxy)-5-fluoropyridin-3-yl)-4-methoxy-3-methylpyrrolidin-2-yl)acetic acid]
250 | CCOc1ccc(F)c(N2CCC(Oc3ccc(N4CC[C@@H](C)[C@@H]4CC(=O)O)cc3)CC2)c1 [Example 104, 2-((2S,3R)-1-(4-((1-(5-Ethoxy-2-fluorophenyl)piperidin-4-yl)oxy)phenyl)-3-methylpyrrolidin-2-yl)acetic acid, TFA]
230 | CCOc1ccc(F)c(N2CCC(Oc3ccc(N4C[C@H](c5ccccc5)C[C@@H]4CC(=O)O)cc3)C(C)C2)c1 (stereo partly drawn) [Example 41, 2-((2R,4S)-1-(4-(((3,4-trans)-1-(5-Ethoxy-2-fluorophenyl)-3-methylpiperidin-4-yl)oxy)phenyl)-4-phenylpyrrolidin-2-yl)acetic acid, HCl]
750 | O=C(O)C[C@H]1C[C@@H](C(F)(F)F)CN1c1ccc(OC2CCN(c3ccccc3F)CC2)cc1 [Example 20, 2-((2R,4R)-1-(4-((1-(2-Fluorophenyl)piperidin-4-yl)oxy)phenyl)-4-(trifluoromethyl)pyrrolidin-2-yl)acetic acid, TFA]
440 | COc1cc(N2CCC(Oc3ccc(N4C[C@H](C(F)(F)F)C[C@@H]4CC(=O)O)cc3)C(C)C2)c(Cl)cn1 (single isomer, unassigned) [Example 27, Isomer 1, HCl]
410 | COc1cc(N2CCC(Oc3cnc(N4C[C@H](OC)[C@@H](C)[C@@H]4CC(=O)O)c(F)c3)C(C)C2)c(Cl)cn1 (stereo partly drawn) [Example 171, 2-((2S,3S,4R)-1-(5-(((3,4-trans)-1-(5-Chloro-2-methoxypyridin-4-yl)-3-methylpiperidin-4-yl)oxy)-3-fluoropyridin-2-yl)-4-methoxy-3-methylpyrrolidin-2-yl)acetic acid]
460 | COCC1CN(c2cc(OC)ncc2Cl)CCC1Oc1ccc(N2C[C@H](C(F)(F)F)C[C@@H]2CC(=O)O)cc1 (single isomer, unassigned) [Example 172, Isomer 2, TFA]
68 | COc1cc(N2CCC(Oc3ccc(N4C[C@H](OC)[C@@H](C)[C@@H]4CC(=O)O)cn3)CC2)c(C2=CCCC2(C)C)cn1 [Example 152, 2-((2S,3S,4R)-1-(6-((1-(5-(5,5-Dimethylcyclopent-1-en-1-yl)-2-methoxypyridin-4-yl)piperidin-4-yl)oxy)pyridin-3-yl)-4-methoxy-3-methylpyrrolidin-2-yl)acetic acid, HCl]
330 | COc1cc(N2CCC(Oc3ccc(N4C[C@H](C(F)(F)F)C[C@@H]4CC(=O)O)cc3)C(F)C2)c(Cl)cn1 (single isomer, unassigned) [Example 28, Isomer 1, HCl]
2800 | COc1ccc(F)c(N2CCC(Oc3ccc(N4C[C@H](C(F)(F)F)C[C@@H]4CC(=O)O)cc3)C2)c1 (single isomer, unassigned) [Example 12, Isomer 1, HCl]
1900 | CCOc1ccc(F)c(N2CCC(Oc3ccc(N4C[C@H](n5cnnn5)C[C@@H]4CC(=O)O)cc3)CC2)c1 [Example 45, 2-((2R,4R)-1-(4-((1-(5-Ethoxy-2-fluorophenyl)piperidin-4-yl)oxy)phenyl)-4-(1H-tetrazol-1-yl)pyrrolidin-2-yl)acetic acid, HCl]
160 | COc1cc(N2CCC(Oc3ccc(N4C[C@H](OC)C[C@@H]4CC(=O)O)cn3)C(C)C2)c(C2CCCC2)cn1 (stereo partly drawn) [Example 149, 2-((2R,4R)-1-(6-(((3,4-trans)-1-(5-Cyclopentyl-2-methoxypyridin-4-yl)-3-methylpiperidin-4-yl)oxy)pyridin-3-yl)-4-methoxypyrrolidin-2-yl)acetic acid]

EC50 [nM] | Structure (SMILES)
190 | COc1ccc(F)c(N2CCC(Oc3ccc(N4C[C@H](Oc5ccccc5)C[C@@H]4CC(=O)O)cc3)CC2)c1 [Example 6, 2-((2R,4R)-1-(4-((1-(2-Fluoro-5-methoxyphenyl)piperidin-4-yl)oxy)phenyl)-4-phenoxypyrrolidin-2-yl)acetic acid, HCl]
1200 | CCOc1ccc(F)c(N2CCC(Oc3ccc(N4C[C@H](Oc5ccc(C)cc5)C[C@@H]4CC(=O)O)cc3)CC2)c1 [Example 74, 2-((2R,4R)-1-(4-(1-(5-Ethoxy-2-fluorophenyl)piperidin-4-yloxy)phenyl)-4-(p-tolyloxy)pyrrolidin-2-yl)acetic acid]
290 | COc1ccc(F)c(N2CCC(Oc3ccc(N4C[C@H](OC)C[C@@H]4CC(=O)O)cc3F)CC2)c1 [Example 15, 2-((2R,4R)-1-(3-Fluoro-4-((1-(2-fluoro-5-methoxyphenyl)piperidin-4-yl)oxy)phenyl)-4-methoxypyrrolidin-2-yl)acetic acid, HCl]
850 | CCOc1cccc(N2CCC(Oc3ccc(N4C[C@H](C(F)(F)F)C[C@@H]4CC(=O)O)cc3)CC2)c1 [Example 21, 2-((2R,4R)-1-(4-((1-(3-Ethoxyphenyl)piperidin-4-yl)oxy)phenyl)-4-(trifluoromethyl)pyrrolidin-2-yl)acetic acid, HCl]
1300 | CCOc1ccc(F)c(N2CCC(Oc3ccc(N4C[C@H](Oc5ccc(C#N)cc5)CC4CC(=O)O)cc3)CC2)c1 (stereo partly drawn) [Example 128, 2-((4R)-4-(4-Cyanophenoxy)-1-(4-((1-(5-ethoxy-2-fluorophenyl)piperidin-4-yl)oxy)phenyl)pyrrolidin-2-yl)acetic acid, HCl]
1400 | CCOc1ccc(F)c(N2CCC(Oc3ccc(N4C[C@H](Oc5ccccc5C#N)C[C@@H]4CC(=O)O)cc3)CC2)c1 [Example 66, 2-((2R,4R)-4-(2-Cyanophenoxy)-1-(4-(1-(5-ethoxy-2-fluorophenyl)piperidin-4-yloxy)phenyl)pyrrolidin-2-yl)acetic acid]
4100 | COc1ccc(F)c(N2CCC(Oc3ccc(N4CCCC4CC(=O)O)cc3)CC2)c1 (single isomer, unassigned) [Example 48, Isomer 1, 2-(1-(4-((1-(2-Fluoro-5-methoxyphenyl)piperidin-4-yl)oxy)phenyl)pyrrolidin-2-yl)acetic acid]
5400 | COc1ccc(F)c(N2CCC(Oc3ccc(N4C[C@H](C(F)(F)F)C[C@@H]4CC(=O)O)cc3)C2)c1 (single isomer, unassigned) [Example 12, Isomer 2, HCl]
240 | COc1ccc(C)c(N2CCC(Oc3ccc(N4C[C@H](OC)C[C@@H]4CC(=O)O)cc3)C(C)C2)c1 (single isomer, unassigned) [Example 64, Isomer 1]
170 | COc1cc(N2CCC(Oc3ccc(N4C[C@H](OC)[C@@H](F)[C@@H]4CC(=O)O)cc3)C(C)C2)c(Cl)cn1 (single isomer, unassigned) [Example 147, Isomer 1, HCl]
505 | CCOc1ccc(F)c(N2CCC(Oc3ccc(N4C[C@H](C(F)(F)F)C[C@@H]4CC(=O)O)cc3)C(C)C2C)c1 (single isomer, unassigned) [Example 44, Isomer 2, HCl]
980 | COc1ccc(F)c(N2C[C@@H](C)[C@H](Oc3ccc(N4C[C@H](OC)C[C@@H]4CC(=O)O)cc3)[C@@H](C)C2)c1 [Example 55, 2-((2R,4R)-1-(4-(((3S,4R,5R)-1-(2-Fluoro-5-methoxyphenyl)-3,5-dimethylpiperidin-4-yl)oxy)phenyl)-4-methoxypyrrolidin-2-yl)acetic acid, HCl]
120 | COc1ccc(C2CCCC2(C)C)c(N2CCC(Oc3ccc(N4C[C@H](OC)C[C@@H]4CC(=O)O)cc3)CC2)c1 (single isomer, unassigned) [Example 65, Isomer 2]
280 | COc1ccc(F)c(N2CCC(Oc3ccc(N4C[C@H](C(F)(F)F)C[C@@H]4CC(=O)O)cn3)CC2)c1 [Example 49, 2-((2R,4R)-1-(6-((1-(2-Fluoro-5-methoxyphenyl)piperidin-4-yl)oxy)pyridin-3-yl)-4-(trifluoromethyl)pyrrolidin-2-yl)acetic acid]
230 | COc1cc(N2CCC(Oc3ccc(N4C[C@H](OC)C[C@@H]4CC(=O)O)cc3Cl)C(C)C2)c(Cl)cn1 (stereo partly drawn) [Example 137, 2-((2R,4R)-1-(3-Chloro-4-(((3,4-trans)-1-(5-chloro-2-methoxypyridin-4-yl)-3-methylpiperidin-4-yl)oxy)phenyl)-4-methoxypyrrolidin-2-yl)acetic acid, sodium salt]
4700 | COc1cc(N2CCC(Oc3ccc(N4C[C@@H](OC)[C@H](C)[C@H]4CC(=O)O)cc3)C(C)C2)c(Cl)cn1 (stereo partly drawn) [Example 131, 2-((2R,3R,4S)-1-(4-(((3,4-trans)-1-(5-Chloro-2-methoxypyridin-4-yl)-3-methylpiperidin-4-yl)oxy)phenyl)-4-methoxy-3-methylpyrrolidin-2-yl)acetic acid]
